# From USRE32333E, “A-21978 Antibiotics and process for their production” (priority 1985, dated 1987)
# Values joined by “and” are separate entries in the source; they are usually repeats but may differ in a detail not shown here. Equal values may be shown once. Read-outs that look alike come from different tables or passages of the source.
# How the values were obtained:
# [1] = tested on: Staphylococcus aureus 3055; experiment: MIC, standard agar-dilution test (Table XI); type: cell-based; details: aerobic, S. aureus 3055, sodium salt form
# [2] = tested on: Group D Streptococcus 282; experiment: MIC, standard agar-dilution test (Table XI); type: cell-based; details: aerobic, sodium salt form
# [3] = tested on: Streptococcus pyogenes C203; experiment: MIC, standard agar-dilution test (Table XI); type: cell-based; details: aerobic, S. pyogenes C203, sodium salt form
# [4] = tested on: Streptococcus pneumoniae Park I; experiment: MIC, standard agar-dilution test (Table XI); type: cell-based; details: aerobic, S. pneumoniae Park I, sodium salt form
# [5] = tested on: Viridans Streptococcus 9943; experiment: MIC, standard agar-dilution test (Table XI); type: cell-based; details: aerobic, sodium salt form
# [6] = tested on: Neisseria gonorrhoeae 111076-4; experiment: MIC, standard agar-dilution test (Table XI); type: cell-based; details: aerobic, N. gonorrhoeae 111076-4, sodium salt form
# [7] = tested on: Staphylococcus aureus 3055; experiment: MIC, standard broth-dilution test (Table XII); type: cell-based; details: aerobic, S. aureus 3055
# [8] = tested on: Group D Streptococcus 282; experiment: MIC, standard broth-dilution test (Table XII); type: cell-based; details: aerobic
# [9] = tested on: Streptococcus pyogenes C203; experiment: MIC, standard broth-dilution test (Table XII); type: cell-based; details: aerobic, S. pyogenes C203
# [10] = tested on: Streptococcus pneumoniae Park I; experiment: MIC, standard broth-dilution test (Table XII); type: cell-based; details: aerobic, S. pneumoniae Park I
# [11] = tested on: Viridans Streptococcus 9943; experiment: MIC, standard broth-dilution test (Table XII); type: cell-based; details: aerobic
# [12] = tested on: Staphylococcus aureus; experiment: MIC against clinical isolates, ICS agar-dilution (Table XIII); type: cell-based; details: 10 clinical isolates, bracket = number of isolates with this MIC or range
# [13] = tested on: Staphylococcus epidermidis; experiment: as above; type: cell-based; details: 12 clinical isolates, bracket = number of isolates with this MIC or range
# [14] = tested on: Actinomyces israelii; experiment: MIC against anaerobic bacteria, standard agar-dilution (Table XIV); type: cell-based; details: anaerobe
# [15] = tested on: Clostridium septicum; experiment: as above; type: cell-based; details: anaerobe
# [16] = tested on: Eubacterium aerofaciens; experiment: as above; type: cell-based; details: anaerobe
# [17] = tested on: Peptococcus asaccharolyticus; experiment: as above; type: cell-based; details: anaerobe
# [18] = tested on: Peptococcus prevoti; experiment: as above; type: cell-based; details: anaerobe
# [19] = tested on: Peptostreptococcus anaerobius; experiment: as above; type: cell-based; details: anaerobe
# [20] = tested on: Peptostreptococcus intermedius; experiment: as above; type: cell-based; details: anaerobe
# [21] = tested on: Propionibacterium acnes; experiment: as above; type: cell-based; details: anaerobe
# [22] = tested on: Bacteroides fragilis; experiment: as above; type: cell-based; details: anaerobe
# [23] = tested on: Fusobacterium symbiosum; experiment: as above; type: cell-based; details: anaerobe
# [24] = tested on: Fusobacterium necrophorum; experiment: as above; type: cell-based; details: anaerobe
# [25] = tested on: Staphylococcus aureus; experiment: MIC, agar dilution (Table XV); type: cell-based
# Text: (§1) ^1 MIC = minimum inhibitory concentration (μg/ml), agar dilution
# [26] = tested on: Streptococcus pneumoniae; experiment: MIC, agar dilution (Table XV); type: cell-based
# Text: as §1
# [27] = tested on: Streptococcus pyogenes; experiment: MIC, agar dilution (Table XV); type: cell-based
# Text: as §1
# [28] = tested on: Staphylococcus aureus; experiment: Experimental bacterial infection in mice, ED50; type: in vivo; details: S. aureus infection, two doses, subcutaneous administration
# Method: (§2) When two doses of test compound were administered to mice in illustrative infections, the activity observed as measured as an ED50 value [effective dose in mg/kg to protect fifty percent of the test animals: See Warren Wick, et al., J. Bacteriol, 81, 233-235 (1961)].
# [29] = tested on: Streptococcus pneumoniae; experiment: Experimental bacterial infection in mice, ED50; type: in vivo; details: S. pneumoniae infection, two doses, subcutaneous administration
# Method: as §2
# [30] = tested on: Streptococcus pyogenes; experiment: Experimental bacterial infection in mice, ED50; type: in vivo; details: S. pyogenes infection, two doses
# Method: as §2
# [31] = tested on: Streptococcus faecalis (Guze); experiment: In vitro susceptibility (MIC) of the S. faecalis Guze strain; type: cell-based
# Text: ^1 In vitro susceptibility of the S. faecalis Guze strain
# [32] = Electrometric titration in 66% aqueous dimethylformamide; type: physicochemical; details: 66% DMF, Na salt forms; factors: two determinations
# [33] = tested on: Clostridium perfringens; details: anaerobe, agar-dilution
# [34] = Mouse
# [35] = Rat, IV
# [36] = tested on: Micrococcus luteus; experiment: Paper-disc agar-diffusion bioassay; details: individual factors, Na salts
# [37] = tested on: Streptococcus faecalis (Guze); experiment: Streptococcus faecalis descending rat pyelonephritis test; details: 1.0 mg/kg x 7 subcutaneous; for Percent of Rats Cured: cure = kidney counts less than 10^2 per g; for Percent of Rats with a 4-Log Titer Decrease: once daily, kidney titer vs infected controls
# [38] = tested on: Viridans Streptococcus; experiment: MIC against clinical isolates, ICS agar-dilution (Table XIII); type: cell-based; details: 2 clinical isolates, bracket = number of isolates with this MIC or range
smiles,measurement,setting,value
CCC(C)CCCCCCC(=O)N[C@@H](Cc1c[nH]c2ccccc12)C(=O)NC(CC(N)=O)C(=O)N[C@@H](CC(=O)O)C(=O)N[C@@H]1C(=O)NCC(=O)N[C@@H](CCCN)C(=O)N[C@@H](CC(=O)O)C(=O)N[C@H](C)C(=O)N[C@@H](CC(=O)O)C(=O)NCC(=O)N[C@H](CO)C(=O)N[C@@H]([C@H](C)CC(=O)O)C(=O)N[C@@H](CC(=O)c2ccccc2N)C(=O)O[C@@H]1C (stereo in doubt) [Factor C1],MIC,[1],0.5 µg/mL
same,MIC,[2],1.0 µg/mL
same,MIC,[3],0.13 µg/mL
same,MIC,[4],0.13 µg/mL
same,MIC,[5],0.5 µg/mL
same,MIC,[6],16.0 µg/mL
same,MIC,[7],1.0 µg/mL
same,MIC,[8],2.0 µg/mL
same,MIC,[9],0.5 µg/mL
same,MIC,[10],2.0 µg/mL
same,MIC,[11],32.0 µg/mL
same,Minimum Inhibitory Concentration,[12],0.5 µg/mL
same,Minimum Inhibitory Concentration,[13],0.13 to 0.25 µg/mL
same,MIC,[14],4 µg/mL
same,MIC,[15],4 µg/mL
same,MIC,[16],16 µg/mL
same,MIC,[17],4 µg/mL
same,MIC,[18],2 µg/mL
same,MIC,[19],2 µg/mL
same,MIC,[20],4 µg/mL
same,MIC,[21],8 µg/mL
same,MIC,[22],> 128 µg/mL
same,MIC,[23],> 128 µg/mL
same,MIC,[24],64 µg/mL
same,MIC,[25],0.5 µg/mL
same,MIC,[26],0.13 µg/mL
same,MIC,[27],0.13 µg/mL
same,ED50,[28],0.22 mg/kg
same,ED50,[29],0.3 mg/kg
same,ED50,[30]; oral administration,93 mg/kg
same,ED50,[30]; subcutaneous administration,0.064 mg/kg
same,MIC,[31],1.0 µg/mL
same,pKa Values (first group),[32],5.7 and 5.9
same,MIC,[33],16 µg/mL
same,LD50,[34]; IV,> 250 mg/kg
same,LD50,[34]; SC,> 365 mg/kg
same,LD50,[35],479 ± 32 mg/kg
same,Bioassay (Micrococcus luteus),[36],1663 units/mg
same,Percent of Rats Cured,[37],50
same,Percent of Rats with a 4-Log Titer Decrease,[37],50
CCC(C)CCCCCCCCC(=O)NC(Cc1c[nH]c2ccccc12)C(=O)NC(CC(N)=O)C(=O)NC(CC(=O)O)C(=O)NC1C(=O)NCC(=O)NC(CCCN)C(=O)NC(CC(=O)O)C(=O)NC(C)C(=O)NC(CC(=O)O)C(=O)NCC(=O)NC(CO)C(=O)NC(C(C)CC(=O)O)C(=O)NC(CC(=O)c2ccccc2N)C(=O)OC1C (stereo not drawn) [Factor C3],MIC,[1],0.06 µg/mL
same,MIC,[2],0.13 µg/mL
same,MIC,[3],0.25 µg/mL
same,MIC,[4],0.13 µg/mL
same,MIC,[5],0.5 µg/mL
same,MIC,[6],4.0 µg/mL
same,MIC,[7],0.13 µg/mL
same,MIC,[8],0.13 µg/mL
same,MIC,[9],0.13 µg/mL
same,MIC,[10],.5 µg/mL
same,MIC,[11],32.0 µg/mL
same,Minimum Inhibitory Concentration,[12],0.06 to 0.12 µg/mL
same,Minimum Inhibitory Concentration,[38],0.5 µg/mL
same,MIC,[14],1.0 µg/mL
same,MIC,[15],1.0 µg/mL
same,MIC,[16],4 µg/mL
same,MIC,[17],1.0 µg/mL
same,MIC,[18],< 0.5 µg/mL
same,MIC,[19],1.0 µg/mL
same,MIC,[20],< 0.5 µg/mL
same,MIC,[21],1.0 µg/mL
same,MIC,[22],> 128 µg/mL
same,MIC,[23],16 µg/mL
same,MIC,[24],32 µg/mL
same,MIC,[25],0.06 µg/mL
same,MIC,[26],0.03 µg/mL
same,MIC,[27],0.06 µg/mL
same,ED50,[28],0.08 mg/kg
same,ED50,[29],0.09 mg/kg
same,ED50,[30]; oral administration,66 mg/kg
same,ED50,[30]; subcutaneous administration,0.032 mg/kg
same,MIC,[31],0.13 µg/mL
same,pKa Values (first group),[32],5.73 and 5.75
same,pKa Values (second group),[32],7.54 and 7.58
same,MIC,[33],8 µg/mL
same,LD50,[34]; IV,< 50 mg/kg
same,LD50,[34]; SC,70 to 75 mg/kg
same,LD50,[35],< 160 mg/kg
same,Bioassay (Micrococcus luteus),[36],803 units/mg
same,Percent of Rats Cured,[37],78
same,Percent of Rats with a 4-Log Titer Decrease,[37],78
